Test results as given in DBAASP.
In brackets after ≈: the same amount, converted by molar mass. Several values for one entry are separate records, joined by “and”; a condition that tells them apart may be missing. Identical values can stand only once.

Experiments:
Test in all cases: ≥ marks a high value that may be exact or a test limit, other limits are often not marked, values filed in µg/mL are converted to µM
[1] = system: Bacillus cereus PCM 2003
[2] = system: Candida albicans ATCC 10231
[3] = system: Candida glabrata DSM 11226
[4] = system: Candida krusei DSM 6128
[5] = system: Candida tropicalis
[6] = system: Escherichia coli ATCC 25922
[7] = system: Pseudomonas aeruginosa ATCC 27857
[8] = system: Staphylococcus aureus ATCC 25923
[9] = system: Staphylococcus epidermidis ATCC 12228
[10] = system: Bacillus subtilis DELTA
[11] = system: Escherichia coli DH5alpha
[12] = system: Zymomonas mobilis ATCC 10988
[13] = system: Bacillus subtilis ATCC 6633
[14] = system: Candida albicans ATCC 36232
[15] = system: Escherichia coli KCTC 2433
[16] = system: Klebsiella pneumoniae ATCC 10031
[17] = system: Micrococcus luteus ATCC 4698
[18] = system: Proteus mirabilis ATCC 25933
[19] = system: Pseudomonas aeruginosa ATCC 9027
[20] = system: Shigella dysenteriae ATCC 9752
[21] = system: Staphylococcus aureus KCTC 3881
[22] = system: Acinetobacter baumannii 97830
[23] = system: Acinetobacter baumannii 9931
[24] = system: Acinetobacter baumannii ATCC 19606
[25] = system: Bacillus subtilis ATCC 23857
[26] = system: Escherichia coli 780
[27] = system: Escherichia coli 804
[28] = system: Klebsiella pneumoniae ATCC 700603
[29] = system: Pseudomonas aeruginosa 50
[30] = system: Pseudomonas aeruginosa 73
[31] = system: Pseudomonas aeruginosa ATCC 27853
[32] = system: Staphylococcus aureus 113
[33] = system: Staphylococcus aureus 75
[34] = system: Staphylococcus aureus ATCC 29213
[35] = system: Pseudomonas aeruginosa 3552
[36] = system: Aeromonas salmonicida 97-4
[37] = system: Aeromonas salmonicida 99-1
[38] = system: Aeromonas salmonicida A449
[39] = system: Candida albicans C627
[40] = system: Escherichia coli CGSC 4908
[41] = system: Escherichia coli DC2
[42] = system: Escherichia coli UB1005
[43] = system: Pseudomonas aeruginosa K799
[44] = system: Pseudomonas aeruginosa Z61
[45] = system: Salmonella enterica serovar typhimurium MS7953s
[46] = system: Salmonella enterica subsp. enterica serovar Typhimurium ATCC 14028s
[47] = system: Staphylococcus aureus C623
[48] = system: Staphylococcus epidermidis C621

With CSCC[C@H](NC(=O)[C@H](C)NC(=O)[C@H](CCCN=C(N)N)NC(=O)[C@H](CCCCN)NC(=O)[C@H](Cc1c[nH]c2ccccc12)NC(=O)[C@H](CCC(N)=O)NC(=O)[C@H](Cc1ccccc1)NC(=O)[C@@H](N)CS)C(=O)N[C@@H](CCCN=C(N)N)C(=O)N[C@@H](CCCCN)C(=O)N[C@H](C(=O)N[C@@H](CCCN=C(N)N)C(N)=O)C(C)C [CFQWKRAMRKVR] the MIC [1] was ≥ 155 µM, the MIC [2] was > 155 µM and the MIC [3] was ≥ 155 µM. For the same molecule, the MIC [4] was ≥ 155 µM, the MIC [5] was ≥ 155 µM and the MIC [6] was 9.94 µM (≈ 16 µg/mL). The MIC [7] was ≥ 77.7 µM, the MIC [8] was 39.2 µM (≈ 63 µg/mL) and the MIC [9] was 2.49 µM (≈ 4 µg/mL).

With CC[C@H](C)[C@H](NC(=O)[C@H](CCCN=C(N)N)NC(=O)[C@H](CCC(N)=O)NC(=O)[C@@H](NC(=O)[C@@H](NC(=O)[C@H](CCCN=C(N)N)NC(=O)[C@H](CCCCN)NC(=O)[C@H](Cc1ccccc1)NC(C)=O)[C@@H](C)CC)C(C)C)C(=O)N[C@@H](CCCN=C(N)N)C(=O)N[C@@H](CC(=O)O)C(=O)N[C@@H](Cc1ccccc1)C(=O)N[C@@H](CC(C)C)C(=O)N[C@@H](CCCN=C(N)N)C(N)=O [FKRIVQRIRDFLR] the MIC [10] was 22.9 µM (≈ 40.9 µg/mL), the MIC [11] was ≥ 57.2 µM and the MIC [12] was ≥ 114 µM.

For CC(C)C[C@H](NC(=O)[C@H](CC(C)C)NC(=O)[C@H](CC(C)C)NC(=O)[C@@H]1CCCN1C(=O)[C@H](CC(C)C)NC(=O)[C@@H](N)Cc1ccccc1)C(=O)N[C@@H](C)C(=O)NCC(=O)N[C@@H](CC(C)C)C(=O)N1CCC[C@H]1C(=O)N[C@@H](CC(C)C)C(=O)N[C@@H](CCCCN)C(=O)N[C@@H](CC(C)C)C(=O)N[C@H]1CSSC[C@@H](C(=O)O)NC(=O)[C@H](CCCCN)NC(=O)[C@H](CCCCN)NC(=O)[C@H](Cc2ccccc2)NC(=O)[C@H](CC(C)C)NC(=O)[C@H](Cc2ccccc2)NC1=O [FLPLLLAGLPLKLCFLFKKC], the MIC [13] was 21.9 µM (≈ 50 µg/mL), the MIC [14] was 21.9 µM (≈ 50 µg/mL) and the MIC [15] was ≥ 43.9 µM. For the same molecule, the MIC [16] was ≥ 43.9 µM, the MIC [17] was 2.74 µM (≈ 6.24 µg/mL) and the MIC [18] was ≥ 43.9 µM. The MIC [19] was > 43.9 µM, the MIC [20] was ≥ 43.9 µM and the MIC [21] was 5.49 µM (≈ 12.5 µg/mL). For the same molecule, the MIC [9] was 21.9 µM (≈ 50 µg/mL).

With NC(=O)[C@H](Cc1ccccc1)NC(=O)[C@H](Cc1c[nH]c2ccccc12)NC(=O)[C@H](CCCN=C(N)N)NC(=O)[C@H](Cc1c[nH]c2ccccc12)NC(=O)[C@H](Cc1c[nH]c2ccccc12)NC(=O)[C@H](Cc1c[nH]c2ccccc12)NC(=O)[C@H](CCCN=C(N)N)NC(=O)[C@H](Cc1c[nH]c2ccccc12)NC(=O)[C@@H](N)Cc1ccccc1 [FWRWWWRWF] the MIC [22] was ≥ 32 µM, the MIC [23] was ≥ 32 µM and the MIC [24] was 64 µM (≈ 99.5 µg/mL). For the same molecule, the MIC [25] was 2 µM (≈ 3.11 µg/mL), the MIC [26] was ≥ 32 µM and the MIC [27] was ≥ 64 µM. For the same molecule, the MIC [28] was 16 µM (≈ 24.9 µg/mL), the MIC [29] was ≥ 128 µM and the MIC [30] was ≥ 128 µM. For the same molecule, the MIC [31] was > 128 µM, the MIC [19] was 128 µM (≈ 199 µg/mL) and the MIC [32] was 8 µM (≈ 12.4 µg/mL). The MIC [33] was 8 µM (≈ 12.4 µg/mL), the MIC [34] was 4 µM (≈ 6.22 µg/mL) and the MIC [9] was 4 µM (≈ 6.22 µg/mL).

For CC[C@H](C)[C@H](NC(=O)CNC(=O)[C@@H](NC(=O)[C@H](Cc1cnc[nH]1)NC(=O)[C@H](CCCCN)NC(=O)[C@H](CCCCN)NC(=O)[C@H](CC(C)C)NC(=O)[C@H](CCCCN)NC(=O)[C@H](Cc1c[nH]c2ccccc12)NC(=O)[C@@H](N)CCCCN)[C@@H](C)CC)C(=O)NCC(=O)N[C@@H](CCCCN)C(=O)N[C@@H](Cc1cnc[nH]1)C(=O)N[C@@H](Cc1ccccc1)C(=O)N[C@@H](CC(C)C)C(=O)N[C@@H](CO)C(=O)N[C@@H](C)C(=O)N[C@@H](CCCCN)C(=O)N[C@@H](CCCCN)C(=O)N[C@@H](Cc1ccccc1)C(N)=O [KWKLKKHIGIGKHFLSAKKF], the MIC [35] was 8 µM and 4 µM.

CC[C@H](C)[C@H](NC(=O)[C@H](CO)NC(=O)[C@H](CCCCN)NC(=O)[C@@H](NC(=O)[C@@H](NC(=O)[C@H](CC(=O)O)NC(=O)[C@H](CCC(=O)O)NC(=O)[C@@H](NC(=O)[C@H](CO)NC(=O)[C@@H](N)CCCNC(=N)N)[C@@H](C)O)[C@@H](C)CC)[C@@H](C)CC)C(=O)N[C@@H](CO)C(=O)NCC(=O)NCC(=O)NCC(=O)N[C@@H](Cc1ccccc1)C(=O)N[C@@H](CC(C)C)C(=O)N[C@@H](CC(N)=O)C(=O)N[C@@H](C)C(=O)N[C@@H](CCSC)C(=O)N[C@@H](CC(N)=O)C(=O)N[C@@H](C)C(C)=O [RSTEDIIKSISGGGFLNAMNA] showed an MIC [36] of 29.3 µM (≈ 63.9 µg/mL), an MIC [37] of 29.3 µM (≈ 63.9 µg/mL) and an MIC [38] of 29.3 µM (≈ 63.9 µg/mL). The MIC [39] was 29.3 µM (≈ 63.9 µg/mL), the MIC [40] was 29.3 µM (≈ 63.9 µg/mL) and the MIC [41] was 29.3 µM (≈ 63.9 µg/mL). The MIC [42] was 29.3 µM (≈ 63.9 µg/mL), the MIC [43] was 29.3 µM (≈ 63.9 µg/mL) and the MIC [44] was 29.3 µM (≈ 63.9 µg/mL). The MIC [45] was 29.3 µM (≈ 63.9 µg/mL), the MIC [46] was 29.3 µM (≈ 63.9 µg/mL) and the MIC [47] was 29.3 µM (≈ 63.9 µg/mL). For the same molecule, the MIC [48] was 29.3 µM (≈ 63.9 µg/mL).
